{"source": "paper PMC11594175", "about": "(2024)", "system": "HD3 with inactivated substrate (rA to dA at cleavage site) (DNA, ribozyme, dA in place of rA at the cleavage site of the substrate strand) CATCTCTTAACGGGGCTGTGCGGCTAGGAAGTAATAGTGAG/CTCACTATAGGAAGAGATG", "assay": "CD titration at 267 nm", "details": "500 mM Na+ (NaCl), 500 mM K+ (KCl), no Mg2+; 50 mM HEPES pH 7.5, 0.5 mM EDTA, 25 °C; 30 µM DNA; 0-10 mM histidine"}
{"smiles": "N[C@@H](Cc1cnc[nH]1)C(=O)O", "values": [{"measurement": "Ka(CD)", "value": "~ 2.0 × 10^3 M^-1"}]}
